From ChEMBL document CHEMBL3758169, “4-Aminoindazolyl-dihydrofuro[3,4-d]pyrimidines as non-covalent inhibitors of mutant epidermal growth factor receptor tyrosine kinase” (Bioorg Med Chem Lett, 2016)
Values after ≈ are worked out from the molar mass of the structure shown.

Assays:
[1] = target: T1, Epidermal growth factor receptor (Homo sapiens, UniProt P00533, L858R/T790M); assay: Inhibition of EGFR T790M/L858R mutant (unknown origin); type: protein assay
[2] = Volume of distribution at steady state in rat; type: ADME, organism-based; details: in vivo, read-out: Vdss
[3] = Plasma clearance in iv dosed rat; type: ADME, organism-based
Hepatocyte [4] = assay: Drug metabolism in human hepatocytes assessed as glucuronidation; type: ADME, cell-based
Hepatocyte [5] = assay: Drug metabolism in rat hepatocytes assessed as glucuronidation; type: ADME, cell-based
[6] = Apparent permeability from the apical to basolateral side in MDCK cells; type: ADME, cell-based, Canis lupus familiaris; details: dog
[7] = Efflux ratio of permeability from basolateral to apical side over apical to basolateral side in MDCK cells; type: ADME, cell-based, Canis lupus familiaris; details: dog
[8] = target: T2, Inhibitor of nuclear factor kappa-B kinase subunit epsilon (Homo sapiens) (UniProt Q14164); assay: Inhibition of IKKepsilon (unknown origin) at 1000 nM
T2 sequence (whole entry): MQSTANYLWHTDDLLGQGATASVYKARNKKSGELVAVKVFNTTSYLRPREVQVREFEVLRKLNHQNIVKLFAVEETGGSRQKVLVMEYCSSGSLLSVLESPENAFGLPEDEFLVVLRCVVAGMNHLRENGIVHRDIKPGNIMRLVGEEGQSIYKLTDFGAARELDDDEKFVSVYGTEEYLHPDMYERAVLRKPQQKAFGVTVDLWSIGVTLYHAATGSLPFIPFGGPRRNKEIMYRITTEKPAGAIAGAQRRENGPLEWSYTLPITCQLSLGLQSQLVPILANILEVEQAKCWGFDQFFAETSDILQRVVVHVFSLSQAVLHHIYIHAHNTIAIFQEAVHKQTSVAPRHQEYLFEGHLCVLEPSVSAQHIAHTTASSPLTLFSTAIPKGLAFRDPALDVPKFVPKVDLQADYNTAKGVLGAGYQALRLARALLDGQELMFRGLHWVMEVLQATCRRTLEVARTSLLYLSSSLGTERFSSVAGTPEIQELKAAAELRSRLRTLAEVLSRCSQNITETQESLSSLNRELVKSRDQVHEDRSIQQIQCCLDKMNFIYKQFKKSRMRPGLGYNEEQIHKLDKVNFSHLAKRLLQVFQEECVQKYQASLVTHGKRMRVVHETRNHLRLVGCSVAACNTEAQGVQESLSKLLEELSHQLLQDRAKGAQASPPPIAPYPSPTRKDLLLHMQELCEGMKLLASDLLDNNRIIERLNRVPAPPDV

[9] = Drug excretion in iv dosed rat bile assessed as glucuronide metabolite; type: ADME, organism-based; details: in vivo
[10] = Total AUC in rat at 5 mg/kg, po; type: ADME, organism-based; set-up: dose 5 mg/kg, time AUCmax, route oral; details: in vivo
[11] = Oral bioavailability in rat at 5 mg/kg; type: ADME, organism-based; details: in vivo
[12] = target: High affinity nerve growth factor receptor (Homo sapiens) (UniProt P04629); assay: Inhibition of TRKA (unknown origin) at 1000 nM
[13] = target: T1, Epidermal growth factor receptor; assay: Inhibition of EGFR T790M/L858R mutant autophosphorylation in human H1975 cells; type: cell-based
[14] = target: T3, Epidermal growth factor receptor (Homo sapiens, UniProt P00533); assay: Inhibition of EGFR deletion (746 to 750 residues) mutant (unknown origin); type: protein assay
Target sequence in this assay (P00533 25-1210 limits assumed, stated change not applied): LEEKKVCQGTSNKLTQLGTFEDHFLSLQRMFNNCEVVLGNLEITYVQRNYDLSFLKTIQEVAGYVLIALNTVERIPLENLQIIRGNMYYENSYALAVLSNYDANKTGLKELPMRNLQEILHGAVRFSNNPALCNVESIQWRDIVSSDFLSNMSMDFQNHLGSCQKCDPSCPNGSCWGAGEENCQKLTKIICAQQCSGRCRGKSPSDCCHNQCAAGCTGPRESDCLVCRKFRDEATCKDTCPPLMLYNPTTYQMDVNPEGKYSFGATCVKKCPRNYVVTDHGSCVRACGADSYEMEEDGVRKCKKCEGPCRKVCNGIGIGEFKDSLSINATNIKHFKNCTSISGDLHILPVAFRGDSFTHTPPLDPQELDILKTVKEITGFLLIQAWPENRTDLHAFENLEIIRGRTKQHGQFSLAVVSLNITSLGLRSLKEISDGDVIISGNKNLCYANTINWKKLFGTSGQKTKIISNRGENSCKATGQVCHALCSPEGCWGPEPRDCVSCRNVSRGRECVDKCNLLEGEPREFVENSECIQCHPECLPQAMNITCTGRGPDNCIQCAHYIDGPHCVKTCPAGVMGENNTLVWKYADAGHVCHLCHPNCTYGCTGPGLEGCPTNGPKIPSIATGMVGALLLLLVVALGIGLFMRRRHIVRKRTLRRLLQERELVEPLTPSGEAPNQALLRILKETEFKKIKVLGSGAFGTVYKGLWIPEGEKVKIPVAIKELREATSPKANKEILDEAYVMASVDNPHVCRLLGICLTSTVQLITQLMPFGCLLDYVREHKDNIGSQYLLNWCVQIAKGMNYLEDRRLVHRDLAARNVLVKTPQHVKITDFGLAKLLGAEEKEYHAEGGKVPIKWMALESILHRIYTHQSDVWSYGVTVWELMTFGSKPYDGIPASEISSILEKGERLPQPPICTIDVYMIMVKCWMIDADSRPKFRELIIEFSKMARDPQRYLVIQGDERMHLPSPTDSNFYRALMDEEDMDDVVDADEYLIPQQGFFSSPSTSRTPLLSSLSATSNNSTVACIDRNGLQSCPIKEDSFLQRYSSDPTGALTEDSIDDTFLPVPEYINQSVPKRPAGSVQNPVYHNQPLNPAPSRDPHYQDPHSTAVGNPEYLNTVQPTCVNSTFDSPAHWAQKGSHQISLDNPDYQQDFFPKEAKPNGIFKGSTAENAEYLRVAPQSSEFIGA

[15] = system: RAF proto-oncogene serine/threonine-protein kinase (Homo sapiens), P04049 [Y340D,Y341D]; assay: Inhibition of RAF1 Y340D/Y341D double mutant (unknown origin) at 1000 nM
[16] = target: T3, Epidermal growth factor receptor; assay: Inhibition of wild type EGFR (unknown origin)
Target sequence in this assay (P00533 whole entry, the tested form may be a part): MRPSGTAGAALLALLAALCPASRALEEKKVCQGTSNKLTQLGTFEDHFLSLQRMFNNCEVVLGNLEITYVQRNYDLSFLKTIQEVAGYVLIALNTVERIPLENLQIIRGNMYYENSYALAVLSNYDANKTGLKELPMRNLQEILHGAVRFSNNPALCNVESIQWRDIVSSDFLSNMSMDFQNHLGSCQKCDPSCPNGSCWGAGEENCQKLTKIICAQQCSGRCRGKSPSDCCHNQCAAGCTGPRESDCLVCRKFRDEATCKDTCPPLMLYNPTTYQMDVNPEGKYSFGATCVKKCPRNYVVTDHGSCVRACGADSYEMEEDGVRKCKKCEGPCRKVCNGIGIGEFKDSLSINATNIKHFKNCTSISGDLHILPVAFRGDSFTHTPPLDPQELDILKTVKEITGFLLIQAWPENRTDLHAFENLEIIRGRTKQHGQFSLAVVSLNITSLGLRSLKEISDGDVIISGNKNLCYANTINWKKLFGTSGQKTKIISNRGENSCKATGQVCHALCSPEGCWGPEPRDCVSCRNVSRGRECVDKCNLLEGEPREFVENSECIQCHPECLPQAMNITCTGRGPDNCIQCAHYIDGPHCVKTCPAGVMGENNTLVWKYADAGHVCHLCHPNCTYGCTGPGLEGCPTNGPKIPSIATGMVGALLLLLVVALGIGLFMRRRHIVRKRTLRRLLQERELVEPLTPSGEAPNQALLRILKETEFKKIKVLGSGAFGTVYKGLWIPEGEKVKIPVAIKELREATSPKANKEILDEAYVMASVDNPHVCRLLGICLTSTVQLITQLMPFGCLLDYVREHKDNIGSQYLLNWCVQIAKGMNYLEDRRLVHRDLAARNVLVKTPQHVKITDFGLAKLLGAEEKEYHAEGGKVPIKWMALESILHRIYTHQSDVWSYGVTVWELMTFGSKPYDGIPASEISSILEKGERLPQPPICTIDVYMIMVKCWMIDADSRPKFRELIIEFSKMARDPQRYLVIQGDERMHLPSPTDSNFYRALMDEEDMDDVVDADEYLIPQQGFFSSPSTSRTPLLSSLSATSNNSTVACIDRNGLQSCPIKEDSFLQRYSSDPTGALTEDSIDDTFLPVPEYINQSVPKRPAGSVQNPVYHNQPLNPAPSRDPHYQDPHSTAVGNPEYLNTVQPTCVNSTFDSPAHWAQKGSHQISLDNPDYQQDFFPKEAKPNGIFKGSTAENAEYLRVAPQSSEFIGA

[17] = system: Epidermal growth factor receptor (Homo sapiens), P00533 [L858R,T790M]; assay: Inhibition of EGFR T790M/L858R double mutant (unknown origin) at 1000 nM; type: protein assay
Rattus norvegicus = assay: Unbound AUC in rat at 5 mg/kg, po; type: ADME, organism-based; details: in vivo
[18] = target: Tyrosine-protein kinase JAK2 (Homo sapiens) (UniProt O60674); assay: Inhibition of JAK2 (unknown origin) at 1000 nM
[19] = target: Receptor-type tyrosine-protein kinase FLT3 (Homo sapiens) (UniProt P36888); assay: Inhibition of FLT3 (unknown origin) at 1000 nM
[20] = target: Tyrosine-protein kinase Lck (Homo sapiens) (UniProt P06239); assay: Inhibition of LCK (unknown origin) at 1000 Nm
[21] = target: Proto-oncogene tyrosine-protein kinase Src (Homo sapiens) (UniProt P12931); assay: Inhibition of SRC (unknown origin) at 1000 nM
[22] = target: Receptor tyrosine-protein kinase erbB-4 (Homo sapiens) (UniProt Q15303); assay: Inhibition of ERBB4 (unknown origin) at 1000 nM
[23] = target: Ribosomal protein S6 kinase beta-1 (Homo sapiens) (UniProt P23443); assay: Inhibition of p70S6K(unknown origin) at 1000 nM
[24] = Drug excretion in iv dosed rat urine assessed as glucuronide metabolite; type: ADME, organism-based; details: in vivo
[25] = Drug excretion in iv dosed rat urine assessed as oxidative metabolite; type: ADME, organism-based; details: in vivo
[26] = target: Vascular endothelial growth factor receptor 2 (Homo sapiens) (UniProt P35968); assay: Inhibition of KDR (unknown origin) at 1000 nM
[27] = target: Serine/threonine-protein kinase Chk1 (Homo sapiens) (UniProt O14757); assay: Inhibition of CHK1 (unknown origin) at 1000 nM
[28] = target: Dual specificity mitogen-activated protein kinase kinase 1 (Homo sapiens) (UniProt Q02750); assay: Inhibition of MEK1 (unknown origin) at 1000 nM
[29] = Drug excretion in iv dosed rat bile assessed as oxidative metabolite; type: ADME, organism-based; details: in vivo
[30] = target: CDK2/Cyclin A2 (Homo sapiens) (UniProt P24941+P20248); assay: Inhibition of CDK2/cyclinA (unknown origin) at 1000 nM; type: protein-complex assay
[31] = target: Mitogen-activated protein kinase 1 (Homo sapiens) (UniProt P28482); assay: Inhibition of ERK2 (unknown origin) at 1000 nM
[32] = target: Epidermal growth factor receptor (Homo sapiens, UniProt P00533, L858R); assay: Inhibition of EGFR L858R mutant (unknown origin); type: protein assay
Epidermal growth factor receptor (Homo sapiens, UniProt P00533, L858R), sequence (P00533 25-1210 L858R limits assumed): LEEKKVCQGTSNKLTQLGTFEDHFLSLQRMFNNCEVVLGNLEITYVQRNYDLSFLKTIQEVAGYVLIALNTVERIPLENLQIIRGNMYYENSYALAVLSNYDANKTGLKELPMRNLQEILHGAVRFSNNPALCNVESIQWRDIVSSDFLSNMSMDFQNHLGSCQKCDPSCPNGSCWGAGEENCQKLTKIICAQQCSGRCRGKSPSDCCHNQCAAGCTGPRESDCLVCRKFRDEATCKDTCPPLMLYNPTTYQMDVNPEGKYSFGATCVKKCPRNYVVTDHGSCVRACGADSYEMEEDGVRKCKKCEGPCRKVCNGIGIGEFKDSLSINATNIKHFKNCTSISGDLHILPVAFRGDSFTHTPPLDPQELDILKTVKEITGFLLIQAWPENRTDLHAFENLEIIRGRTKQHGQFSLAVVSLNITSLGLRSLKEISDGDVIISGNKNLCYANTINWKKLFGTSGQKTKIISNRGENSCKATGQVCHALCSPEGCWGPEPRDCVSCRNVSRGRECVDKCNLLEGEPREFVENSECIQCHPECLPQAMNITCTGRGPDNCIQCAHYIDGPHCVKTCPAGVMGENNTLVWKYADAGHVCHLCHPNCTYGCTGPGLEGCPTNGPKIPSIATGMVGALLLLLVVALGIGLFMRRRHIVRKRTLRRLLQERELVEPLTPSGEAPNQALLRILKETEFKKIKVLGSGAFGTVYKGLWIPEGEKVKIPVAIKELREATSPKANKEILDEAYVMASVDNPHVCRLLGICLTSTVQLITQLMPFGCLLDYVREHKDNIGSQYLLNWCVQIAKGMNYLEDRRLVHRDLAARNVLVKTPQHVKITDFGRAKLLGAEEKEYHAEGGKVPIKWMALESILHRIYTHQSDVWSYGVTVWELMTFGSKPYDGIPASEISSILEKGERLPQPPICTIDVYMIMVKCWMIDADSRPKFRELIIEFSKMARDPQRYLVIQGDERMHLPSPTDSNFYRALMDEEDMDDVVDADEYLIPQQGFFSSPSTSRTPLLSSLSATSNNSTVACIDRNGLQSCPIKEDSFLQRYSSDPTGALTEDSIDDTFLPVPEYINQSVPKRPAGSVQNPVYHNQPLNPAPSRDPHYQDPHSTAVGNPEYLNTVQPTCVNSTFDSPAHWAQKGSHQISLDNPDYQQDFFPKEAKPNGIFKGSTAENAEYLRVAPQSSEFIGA

[33] = target: T3, Epidermal growth factor receptor; assay: Inhibition of EGFR T790M/deletion (746 to 750 residues) mutant (unknown origin); type: protein assay
Target sequence in this assay (P00533 25-1210 limits assumed, stated change not applied): as the sequence (P00533 25-1210 limits assumed, stated change not applied) above

[34] = target: Aurora kinase B (Homo sapiens) (UniProt Q96GD4); assay: Inhibition of Aurora B (unknown origin) at 1000 nM
[35] = Kinetic solubility of compound; type: physicochemical; details: read-out: Kinetic_solubility
[36] = target: Receptor tyrosine-protein kinase erbB-2 (Homo sapiens) (UniProt P04626); assay: Inhibition of ERBB2 (unknown origin) at 1000 nM

T1 sequence (P00533 25-1210 T790M/L858R limits assumed): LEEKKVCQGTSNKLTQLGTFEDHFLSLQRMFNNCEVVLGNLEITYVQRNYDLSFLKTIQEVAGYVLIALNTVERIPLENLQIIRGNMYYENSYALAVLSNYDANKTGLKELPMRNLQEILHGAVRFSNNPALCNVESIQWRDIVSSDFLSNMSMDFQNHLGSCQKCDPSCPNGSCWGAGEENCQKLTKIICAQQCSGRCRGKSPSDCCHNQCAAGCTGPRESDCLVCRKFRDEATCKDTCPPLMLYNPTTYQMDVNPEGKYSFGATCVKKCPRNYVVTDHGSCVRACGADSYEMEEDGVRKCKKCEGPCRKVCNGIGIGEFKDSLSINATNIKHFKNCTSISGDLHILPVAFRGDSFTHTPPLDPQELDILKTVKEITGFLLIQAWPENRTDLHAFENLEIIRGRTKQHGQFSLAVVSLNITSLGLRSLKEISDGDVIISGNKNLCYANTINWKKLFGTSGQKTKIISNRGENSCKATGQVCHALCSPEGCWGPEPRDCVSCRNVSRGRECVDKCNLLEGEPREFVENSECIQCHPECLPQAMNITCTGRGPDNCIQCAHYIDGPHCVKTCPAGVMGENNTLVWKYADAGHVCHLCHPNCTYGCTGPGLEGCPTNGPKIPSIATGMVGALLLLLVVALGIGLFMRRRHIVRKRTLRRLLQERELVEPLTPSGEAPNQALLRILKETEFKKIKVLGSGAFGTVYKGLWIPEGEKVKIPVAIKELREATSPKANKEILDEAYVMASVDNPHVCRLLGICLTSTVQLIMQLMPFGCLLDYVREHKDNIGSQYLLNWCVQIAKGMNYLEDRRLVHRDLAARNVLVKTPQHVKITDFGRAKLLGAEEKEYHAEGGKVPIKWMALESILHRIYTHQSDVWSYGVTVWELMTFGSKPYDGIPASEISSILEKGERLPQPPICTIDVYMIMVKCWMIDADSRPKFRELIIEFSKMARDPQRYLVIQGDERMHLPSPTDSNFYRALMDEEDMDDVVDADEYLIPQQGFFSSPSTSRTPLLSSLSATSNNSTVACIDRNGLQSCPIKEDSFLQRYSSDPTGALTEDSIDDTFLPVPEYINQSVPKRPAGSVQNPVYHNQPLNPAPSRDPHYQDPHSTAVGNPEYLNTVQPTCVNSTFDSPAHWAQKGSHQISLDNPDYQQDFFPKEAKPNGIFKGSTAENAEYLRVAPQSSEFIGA

CC1(C)OCc2c(Nc3n[nH]c4cc(F)ccc34)nc(-c3cn[nH]c3)nc21
Ki [1]: 2 nM

CC1(C)OCc2c(Nc3c[nH]c4ccccc34)nc(-c3cn[nH]c3)nc21
Ki [1]: 17 nM

CC1(C)OCc2c(Oc3n[nH]c4ccccc34)nc(-c3cn[nH]c3)nc21
Ki [1]: 85 nM

CC1(C)OCc2c(Nc3nsc4ccccc34)nc(-c3cn[nH]c3)nc21
Ki [1]: 747 nM

CC1(C)OCc2c(Nc3n[nH]c4ccc(F)cc34)nc(-c3cn[nH]c3)nc21
Vd [2]: 6.8 L/kg | clearance [3]: 81 mL/min/kg | Drug metabolism (Hepatocyte [4]): metabolite_detected | Ki [1]: 8 nM | Drug metabolism (Hepatocyte [5]): metabolite_detected

CC1(C)OCc2c(Nc3n[nH]c4cc(Cl)ccc34)nc(-c3cn[nH]c3)nc21
Ki [1]: 22.4 nM

CC1(C)OCc2c(Nc3n[nH]c4ccccc34)nc(-c3c[nH]nn3)nc21
Ki [1]: 732 nM

CC1(C)OCc2c(Nc3n[nH]c4cc(C(F)(F)F)ccc34)nc(-c3cn[nH]c3)nc21
Vd [2]: 1.2 L/kg | Papp A→B [6]: 10.3 ×10⁻⁶ cm/s | clearance [3]: 91 mL/min/kg | efflux ratio [7]: 1.5 | Ki [1]: > 2000 nM

CC1(C)OCc2c(Nc3n[nH]c4c(F)cc(F)cc34)nc(-c3cn[nH]c3)nc21
Ki [1]: 10.4 nM

CC1(C)OCc2c(Nc3n[nH]c4c(Cl)cccc34)nc(-c3cn[nH]c3C(F)F)nc21
inhibition [8]: 1.9% | Drug excretion [9]: metabolite_detected | AUC [10]: 3.4 µM·h | bioavailability [11]: 62% | inhibition [12]: 15.3% | IC50 [13]: 370 nM | Ki [14]: 1.7 nM | Vd [2]: 3.3 L/kg | inhibition [15]: 38.4% | Ki [16]: 6.5 nM | inhibition [17]: 90.8% | fAUC (Rattus norvegicus): 0.09 µM·h | inhibition [18]: 10.1% | inhibition [19]: 38.1% | Papp A→B [6]: 8.4 ×10⁻⁶ cm/s | clearance [3]: 36 mL/min/kg | efflux ratio [7]: 0.7 | inhibition [20]: 85.7% | inhibition [21]: 47.6% | inhibition [22]: 97% | inhibition [23]: 2.7% | Drug excretion [24]: metabolite_detected | Drug excretion [25]: metabolite_detected | inhibition [26]: 96.4% | inhibition [27]: 6.9% | inhibition [28]: -4.5% | Drug excretion [29]: metabolite_detected | inhibition [30]: -4% | inhibition [31]: 4.5% | Ki [32]: 3.4 nM | Ki [1]: 9 nM | Ki [33]: 2.5 nM | inhibition [34]: -7% | solubility kinetic [35]: 3 µM (≈ 1.3 µg/mL) | inhibition [36]: 91.8%

CC1(C)OCc2c(Nc3n[nH]c(Cl)c3Cl)nc(-c3cn[nH]c3)nc21
Ki [1]: 389 nM

CC1(C)OCc2c(Nc3n[nH]c4c(Cl)c(F)ccc34)nc(-c3cn[nH]c3)nc21
Vd [2]: 5.5 L/kg | Papp A→B [6]: 7.3 ×10⁻⁶ cm/s | clearance [3]: 60 mL/min/kg | efflux ratio [7]: 1.1 | Ki [1]: 4 nM

Cc1cc(Nc2nc(-c3cn[nH]c3)nc3c2COC3(C)C)n[nH]1
Ki [1]: 844 nM

CC1(C)OCc2c(Nc3n[nH]c4ccncc34)nc(-c3cn[nH]c3)nc21
Ki [1]: > 2000 nM

CC1(C)OCc2c(Nc3n[nH]c4c3CCCC4)nc(-c3cn[nH]c3)nc21
Ki [1]: > 2000 nM

CC1(C)OCc2c(Nc3n[nH]c4c(Cl)cc(F)cc34)nc(-c3cn[nH]c3)nc21
Ki [1]: 16 nM

CC1(C)OCc2c(Nc3n[nH]c4ccccc34)nc(-c3cscn3)nc21
Ki [1]: 5.6 nM

CN(c1nc(-c2cn[nH]c2)nc2c1COC2(C)C)c1n[nH]c2ccccc12
Ki [1]: 519 nM

CC1(C)OCc2c(Nc3n[nH]c4c(F)cccc34)nc(-c3cn[nH]c3)nc21
Ki [1]: 3 nM

CC1(C)OCc2c(Nc3n[nH]c4c(C(F)(F)F)cccc34)nc(-c3cn[nH]c3)nc21
AUC [10]: 0.36 µM·h | bioavailability [11]: 5% | Vd [2]: 2.4 L/kg | fAUC (Rattus norvegicus): 0.03 µM·h | Papp A→B [6]: 8.5 ×10⁻⁶ cm/s | clearance [3]: 27 mL/min/kg | efflux ratio [7]: 1.3 | Drug metabolism (Hepatocyte [4]): metabolite_detected | Ki [1]: 134 nM | solubility kinetic [35]: 3 µM (≈ 1.25 µg/mL) | Drug metabolism (Hepatocyte [5]): metabolite_detected

Cn1nc(Nc2nc(-c3cn[nH]c3)nc3c2COC3(C)C)c2cccc(F)c21
Vd [2]: 1.5 L/kg | clearance [3]: 60 mL/min/kg | Ki [1]: 57 nM

Cn1nccc1-c1nc(Nc2n[nH]c3ccccc23)c2c(n1)C(C)(C)OC2
AUC [10]: 7.5 µM·h | bioavailability [11]: 117% | IC50 [13]: 3000 nM | Ki [14]: < 0.5 nM | Vd [2]: 2.3 L/kg | Ki [16]: 1.1 nM | fAUC (Rattus norvegicus): 0.23 µM·h | Papp A→B [6]: 12.9 ×10⁻⁶ cm/s | clearance [3]: 38 mL/min/kg | efflux ratio [7]: 0.9 | Ki [32]: < 0.5 nM | Ki [1]: 34.3 nM | Ki [33]: 21.3 nM

CC1(C)OCc2c(C(=O)c3n[nH]c4ccccc34)nc(-c3cn[nH]c3)nc21
Ki [1]: 104 nM

CC1(C)OCc2c(Nc3n[nH]c4cccc(F)c34)nc(-c3cn[nH]c3)nc21
Ki [1]: 17 nM

CC1(C)OCc2c(Nc3n[nH]c4ccccc34)nc(-c3cc[nH]n3)nc21
Ki [1]: 175 nM

CC1(C)OCc2c(Nc3nc4ccccc4s3)nc(-c3cn[nH]c3)nc21
Ki [1]: > 2000 nM
